Among the data in EP0296574A2, “Cholecystokinin analogs for controlling appetite” (F. HOFFMANN-LA ROCHE AG, priority 1987, dated 1988) are IC50 values, retold here.

Where a SMILES comes first, the peptide text is derived from it. [ ]: non-standard residue; d: D form. Thr(SO3H) = C[C@@H](OS(=O)(=O)O)[C@H](N)C(=O)O; sY = N[C@@H](Cc1ccc(OS(=O)(=O)O)cc1)C(=O)O; NMeF = CN[C@@H](Cc1ccccc1)C(=O)O; Nle = CCCC[C@H](N)C(=O)O

One assay concerns the target T1, Bovine Striatum (Bos taurus, UniProt P79266).
T1 construct: tissue homogenate (striatum 0.26 mg protein in 2 ml final volume); from tissue; host or cells: bovine striatum homogenate (membrane pellet)
T1 sequence (P79266 1-454): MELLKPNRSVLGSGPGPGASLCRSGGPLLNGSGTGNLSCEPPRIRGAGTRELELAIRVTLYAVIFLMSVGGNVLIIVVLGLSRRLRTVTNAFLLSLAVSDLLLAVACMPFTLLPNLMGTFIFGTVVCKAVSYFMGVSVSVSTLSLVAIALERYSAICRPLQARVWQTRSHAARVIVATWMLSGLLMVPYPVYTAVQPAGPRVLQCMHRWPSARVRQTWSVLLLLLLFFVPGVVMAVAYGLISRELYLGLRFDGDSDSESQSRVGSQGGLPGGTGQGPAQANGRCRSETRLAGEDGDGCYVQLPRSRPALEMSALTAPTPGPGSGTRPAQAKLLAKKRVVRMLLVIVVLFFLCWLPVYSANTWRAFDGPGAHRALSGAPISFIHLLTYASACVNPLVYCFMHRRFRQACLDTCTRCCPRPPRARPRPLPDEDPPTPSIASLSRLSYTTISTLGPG
In words: In vitro receptor binding assay, inhibition of ³H-CCK-8-(SO₃H) binding to bovine striatum homogenate. To be noted: ³H-CCK-8-(SO₃H) 0.15 nM, 30 min at 25° C; read-out: Bovine Striatum (IC₅₀ value). As for the experimental part: (§1) The tissue was homogenized 2 x for approx. 15 sec. at 0°C using a Polytron homogenizer at a setting of 6. The tissue was isolated by centrifugation at 48,000 x g for 10 min. at 0°C. […] Samples were incubated for 30 min. at 25° C and the incubation terminated by pouring the mixture onto a pre-wet Whatman GF/B filter on a Sandbeck Vacuum Filtration Manifold. The incubation tubes were washed with 2 x 3 ml of ice-cold HEPES Buffer #2 and the wash filtered through the GF/B filter. The filter was air dried for 10 min. and then placed in a scintillation vial with 12 ml of Beckman HP/b Ready-Solv scintillation cocktail. The vials were shaken for 2 hours and then counted using a Beckman Model 7800 liquid scintillation spectrometer.

The next assay concerns the target T2, Rat Pancreas (Rattus norvegicus, UniProt P30551).
T2 construct: pancreas 0.165 mg protein in 1 ml final volume; from tissue; host or cells: rat pancreas homogenate (membrane pellet)
T2 sequence (P30551 1-444): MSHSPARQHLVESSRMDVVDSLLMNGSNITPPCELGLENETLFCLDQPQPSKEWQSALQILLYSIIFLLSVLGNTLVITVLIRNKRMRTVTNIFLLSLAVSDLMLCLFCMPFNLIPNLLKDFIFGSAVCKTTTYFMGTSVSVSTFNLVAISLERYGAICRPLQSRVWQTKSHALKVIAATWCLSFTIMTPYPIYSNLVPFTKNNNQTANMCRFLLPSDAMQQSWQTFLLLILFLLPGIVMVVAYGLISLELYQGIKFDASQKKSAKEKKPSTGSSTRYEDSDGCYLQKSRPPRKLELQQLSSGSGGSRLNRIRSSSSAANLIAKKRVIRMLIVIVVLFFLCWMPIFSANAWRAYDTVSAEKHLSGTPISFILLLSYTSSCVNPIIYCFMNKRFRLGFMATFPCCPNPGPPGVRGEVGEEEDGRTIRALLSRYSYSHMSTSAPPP
Kind of assay: In vitro receptor binding assay, inhibition of ³H-CCK-8-(SO₃H) binding to rat pancreas homogenate. The following applies: ³H-CCK-8-(SO₃H) 0.15 nM, 30 min at 25° C; read-out: Rat Pancreas (IC₅₀ value). As for the experimental part:
as §1

On to `CSCC[C@H](NC(=O)[C@H](Cc1ccc(OS(=O)(=O)O)cc1)NC(=O)[C@@H](N)CC(=O)O)C(=O)NCC(=O)N[C@@H](Cc1c[nH]c2ccccc12)C(=O)N[C@@H](CCSC)C(=O)N[C@@H](CC(=O)O)C(=O)N[C@@H](Cc1ccccc1)C(N)=O` [CCK-8, reference compound], for which the IC50 at Bovine Striatum is 1 to 3.2 nM; on Rat Pancreas, 1 to 4.6 nM.

Turning to `CCCC[C@H](NC(=O)[C@H](Cc1ccc(OS(=O)(=O)O)cc1)NC(C)=O)C(=O)NCC(=O)N[C@@H](Cc1c[nH]c2ccccc12)C(=O)N[C@@H](CCCC)C(=O)N[C@H](C(=O)N(C)[C@@H](Cc1ccccc1)C(N)=O)[C@@H](C)OS(=O)(=O)O` [Example 1, Ac-Tyr(SO₃H)-Nle-Gly-Trp-Nle-Thr(SO₃H)-N-methyl-Phe-NH₂] (Ac-[sY][Nle]GW[Nle][Thr(SO3H)][NMeF]-NH2), the IC50 came out at 245 nM on Bovine Striatum and 0.14 nM at Rat Pancreas.

With `CSCC[C@H](NC(=O)[C@H](Cc1c[nH]c2ccccc12)NC(=O)CNC(=O)[C@H](Cc1ccc(OS(=O)(=O)O)cc1)NC(C)=O)C(=O)N[C@H](C(=O)N(C)[C@@H](Cc1ccccc1)C(N)=O)[C@@H](C)OS(=O)(=O)O` [Example 2, Ac-Tyr(SO₃H)-Gly-Trp-Met-Thr(SO₃H)-N-methyl-Phe-NH₂] (Ac-[sY]GWM[Thr(SO3H)][NMeF]-NH2), the IC50 on Bovine Striatum is 1600 nM; on Rat Pancreas, 70 nM.
